Laboratory results reported in patent US4920103A, “Modifications of mycinose and 3-O-demethylmycinose in tylosin-type macrolides” (Eli Lilly and Company, priority 1986, dated 1990).
Converted amounts (≈) assume the structure as drawn. Like-named read-outs stand apart in the source and are kept apart here.

How the values were obtained:
[1] = system: Mycoplasma gallisepticum 15E; experiment: MIC, broth-dilution microtiter test, M. gallisepticum 15E; assay type: cell-based; conditions: Mycoplasmoides gallisepticum, broth-dilution microtiter, read-out: MIC
Procedure: (§1) The MIC's in Table II were determined by standard agar-dilution assays. The MIC's in Table III were obtained using conventional broth-dilution microtiter tests.

[2] = system: Pasteurella hemolytica 22C; experiment: MIC, broth-dilution microtiter test, P. hemolytica 22C; assay type: cell-based
Procedure: as §1

[3] = system: Bordetella bronchiseptica; experiment: MIC, broth-dilution microtiter test, B. bronchiseptica; assay type: cell-based
Procedure: as §1

[4] = system: Streptococcus pyogenes C203; experiment: MIC, standard agar-dilution assay, S. pyogenes C203; assay type: cell-based; conditions: Streptococcus pyogenes, C203
Procedure: as §1

[5] = system: Mycoplasma hyopneumoniae S5972; experiment: MIC, broth-dilution microtiter test, M. hyopneumoniae S5972; assay type: cell-based; conditions: Mesomycoplasma hyopneumoniae, S5972; broth-dilution microtiter; read-out: MIC
Procedure: as §1

[6] = system: Staphylococcus epidermidis EPI1; experiment: MIC, standard agar-dilution assay, S. epidermidis EPI1; assay type: cell-based
Procedure: as §1

[7] = system: Streptococcus sp. 19F; experiment: MIC, broth-dilution microtiter test, Streptococcus sp. 19F; assay type: cell-based; conditions: Streptococcus, SP.19F
Procedure: as §1

[8] = system: Haemophilus influenzae C.L.; experiment: MIC, standard agar-dilution assay, H. influenzae C.L.; assay type: cell-based
Procedure: as §1

[9] = system: Streptococcus Group D X66; experiment: MIC, standard agar-dilution assay, Streptococcus Group D X66; assay type: cell-based
Procedure: as §1

[10] = system: Mycoplasma gallisepticum 36H; experiment: MIC, broth-dilution microtiter test, M. gallisepticum 36H; assay type: cell-based; conditions: Mycoplasmoides gallisepticum
Procedure: as §1

[11] = system: Streptococcus Group D 2041; experiment: MIC, standard agar-dilution assay, Streptococcus Group D 2041; assay type: cell-based; conditions: GROUPD2041
Procedure: as §1

[12] = system: Pasteurella multocida 22A; experiment: MIC, broth-dilution microtiter test, P. multocida 22A; assay type: cell-based
Procedure: as §1

[13] = system: Haemophilus influenzae 76; experiment: MIC, standard agar-dilution assay, H. influenzae 76; assay type: cell-based
Procedure: as §1

[14] = system: Pseudomonas aeruginosa X239; experiment: MIC, standard agar-dilution assay, P. aeruginosa X239; assay type: cell-based
Procedure: as §1

[15] = system: Staphylococcus aureus V41; experiment: MIC, standard agar-dilution assay, S. aureus V41; assay type: cell-based; conditions: Staphylococcus aureus, V41
Procedure: as §1

[16] = system: Staphylococcus aureus X400; experiment: MIC, standard agar-dilution assay, S. aureus X400; assay type: cell-based
Procedure: as §1

[17] = system: Pasteurella hemolytica 23C; experiment: MIC, broth-dilution microtiter test, P. hemolytica 23C; assay type: cell-based
Procedure: as §1

[18] = system: Staphylococcus aureus X1.1; experiment: MIC, standard agar-dilution assay, S. aureus X1.1; assay type: cell-based
Procedure: as §1

[19] = system: Pasteurella multocida 17E; experiment: MIC, broth-dilution microtiter test, P. multocida 17E; assay type: cell-based; conditions: Pasteurella multocida, 17E
Procedure: as §1

[20] = system: Mycoplasma gallisepticum 29C; experiment: MIC, broth-dilution microtiter test, M. gallisepticum 29C; assay type: cell-based; conditions: Mycoplasmoides gallisepticum
Procedure: as §1

[21] = system: Staphylococcus aureus; experiment: MIC, broth-dilution microtiter test, S. aureus; assay type: cell-based
Procedure: as §1

[22] = system: Klebsiella pneumoniae X68; experiment: MIC, standard agar-dilution assay, K. pneumoniae X68; assay type: cell-based
Procedure: as §1

[23] = system: Streptococcus pyogenes C203; experiment: Protection of mice experimentally infected with Streptococcus pyogenes C203; assay type: in vivo; conditions: Streptococcus pyogenes, doses given 1 and 4 hours postinfection, read-out: ED50
Procedure: The formula 1 compounds have shown in vivo antimicrobial activity against experimentally-induced infections in laboratory animals. When two doses of test compound were administered to mice experimentally infected with Streptococcus pyogenes C203, the activity observed was measured as an ED50 value [effective dose in mg/kg to protect 50% of the test animals: see Warren Wick, et al., J. Bacteriol. 81, 233-235 (1961)].
^a mg/kg × 2; doses given 1 and 4 hours postinfection

[24] = system: Pasteurella multocida 40G; experiment: MIC, broth-dilution microtiter test, P. multocida 40G; assay type: cell-based
Procedure: as §1

[25] = system: Pasteurella hemolytica 41D; experiment: MIC, broth-dilution microtiter test, P. hemolytica 41D; assay type: cell-based
Procedure: as §1

[26] = system: Escherichia coli EC14; experiment: MIC, standard agar-dilution assay, E. coli EC14; assay type: cell-based
Procedure: as §1

[27] = system: Pasteurella multocida 60A; experiment: MIC, broth-dilution microtiter test, P. multocida 60A; assay type: cell-based
Procedure: as §1

[28] = system: Pasteurella multocida 68C; experiment: MIC, broth-dilution microtiter test, P. multocida 68C; assay type: cell-based
Procedure: as §1

[29] = system: Streptococcus pneumoniae Park I; experiment: MIC, standard agar-dilution assay, S. pneumoniae Park I; assay type: cell-based; conditions: Streptococcus pneumoniae
Procedure: as §1

[30] = system: Staphylococcus epidermidis 222; experiment: MIC, standard agar-dilution assay, S. epidermidis 222; assay type: cell-based
Procedure: as §1

[31] = system: Staphylococcus aureus S13E; experiment: MIC, standard agar-dilution assay, S. aureus S13E; assay type: cell-based
Procedure: as §1

[32] = system: Mycoplasma synoviae 40A; experiment: MIC, broth-dilution microtiter test, M. synoviae 40A; assay type: cell-based; conditions: Mycoplasmopsis synoviae, 40A
Procedure: as §1

[33] = system: Mycoplasma hyorhinis 29E; experiment: MIC, broth-dilution microtiter test, M. hyorhinis 29E; assay type: cell-based; conditions: Mycoplasma, 29E; broth-dilution microtiter; read-out: MIC
Procedure: as §1

[34] = broth-dilution microtiter, read-out: MIC

SMILES: CCC1OC(=O)CC(O)C(C)C(OC2OC(C)C(O)C(N(C)C)C2O)C(CCOc2ccccc2)CC(C)C(=O)C=CC(C)=CC1COC1OC(C)C(=NO)C(OC)C1OC (stereo not drawn) [Compound 4, 4"-O-Hydroxyimino-20-DH-20-O-phenyl-desmycosin]
- MIC [1]: 25 µg/mL (≈ 29 µM)
- MIC [2, 34]: > 50 µg/mL
- MIC [3, 34]: > 50 µg/mL
- MIC [4]: 2 µg/mL (≈ 2.32 µM)
- MIC [5]: > 50 µg/mL
- MIC [6]: 1 µg/mL (≈ 1.16 µM)
- MIC [7]: 0.78 µg/mL (≈ 0.904 µM)
- MIC ([8]; agar-dilution, ampicillin-sensitive strain, read-out: MIC): > 128 µg/mL
- MIC [9]: 2 µg/mL (≈ 2.32 µM)
- MIC [10]: 50 µg/mL (≈ 57.9 µM)
- MIC [11]: 4 µg/mL (≈ 4.63 µM)
- MIC [12, 34]: > 50 µg/mL
- MIC ([13]; agar-dilution, ampicillin-resistant strain, read-out: MIC): > 128 µg/mL
- MIC ([14]; agar-dilution, read-out: MIC): > 128 µg/mL
- MIC [15]: 1 µg/mL (≈ 1.16 µM)
- MIC [16]: 1 µg/mL (≈ 1.16 µM)
- MIC [17, 34]: > 50 µg/mL
- MIC [18]: 0.5 µg/mL (≈ 0.579 µM)
- MIC [19]: 50 µg/mL (≈ 57.9 µM)
- MIC [20]: 1.56 µg/mL (≈ 1.81 µM)
- MIC [21]: 1.56 µg/mL (≈ 1.81 µM)
- MIC ([22]; agar-dilution, read-out: MIC): > 128 µg/mL
- ED50 ([23]; C203, oral): 39.6 mg/kg
- ED50 ([23]; C203, sc, subcutaneous): > 10 mg/kg
- MIC [24]: 50 µg/mL (≈ 57.9 µM)
- MIC [25, 34]: > 50 µg/mL
- MIC ([26]; agar-dilution, read-out: MIC): > 128 µg/mL
- MIC ([27]; broth-dilution microtiter, avian isolate, read-out: MIC): > 50 µg/mL
- MIC [28]: 50 µg/mL (≈ 57.9 µM)
- MIC [29]: 2 µg/mL (≈ 2.32 µM)
- MIC [30]: 0.5 µg/mL (≈ 0.579 µM)
- MIC [31]: 1 µg/mL (≈ 1.16 µM)

SMILES: CCC1OC(=O)CC(O)C(C)C(OC2OC(C)C(OC(C)=O)C(N(C)C)C2OC(C)=O)C(CCOc2ccccc2)CC(C)C(=O)C=CC(C)=CC1COC1OC(C)CC(OC)C1OC (stereo not drawn) [Compound 10, 2',4'-Di-O-acetyl-4"-deoxy-20-DH-20-O-phenyl-desmycosin]
- MIC [2]: > 50 µg/mL
- MIC [3]: > 50 µg/mL
- MIC [4]: 0.5 µg/mL (≈ 0.545 µM)
- MIC [5]: 6.25 µg/mL (≈ 6.81 µM)
- MIC [32]: 3.12 µg/mL (≈ 3.4 µM)
- MIC [6]: 0.25 µg/mL (≈ 0.272 µM)
- MIC [7, 34]: 6.25 µg/mL (≈ 6.81 µM)
- MIC [8]: 64 µg/mL (≈ 69.7 µM)
- MIC [9]: 2 µg/mL (≈ 2.18 µM)
- MIC [10, 34]: 25 µg/mL (≈ 27.2 µM)
- MIC [11]: 4 µg/mL (≈ 4.36 µM)
- MIC [12]: > 50 µg/mL
- MIC [13]: 64 µg/mL (≈ 69.7 µM)
- MIC [14]: > 128 µg/mL
- MIC [15]: 0.5 µg/mL (≈ 0.545 µM)
- MIC [16]: 0.5 µg/mL (≈ 0.545 µM)
- MIC [17]: 50 µg/mL (≈ 54.5 µM)
- MIC [18]: 0.25 µg/mL (≈ 0.272 µM)
- MIC [19]: 50 µg/mL (≈ 54.5 µM)
- MIC [20, 34]: < 0.048 µg/mL
- MIC [21]: 0.78 µg/mL (≈ 0.85 µM)
- MIC [22]: > 128 µg/mL
- MIC [24]: > 50 µg/mL
- MIC [25]: 50 µg/mL (≈ 54.5 µM)
- MIC [26]: > 128 µg/mL
- MIC [27]: > 50 µg/mL
- MIC [28]: 50 µg/mL (≈ 54.5 µM)
- MIC [33]: 25 µg/mL (≈ 27.2 µM)
- MIC [29]: 0.5 µg/mL (≈ 0.545 µM)
- MIC [30]: 0.25 µg/mL (≈ 0.272 µM)
- MIC [31]: 0.5 µg/mL (≈ 0.545 µM)
